PMC8401035, “Synthesis and In Vitro Characterization of Glycopeptide Drug Candidates Related to PACAP1–23” (Molecules, 2021)
Where two headings read alike, the source gives them in different places. Non-standard residues stand in square brackets, D forms with d. Residues, ends and D or L forms follow the SMILES beside them. *: point of attachment. X1 = OC[C@H]1O[C@@H](O[C@H]2[C@H](O)[C@@H](O)[C@H](*)O[C@@H]2CO)[C@H](O)[C@@H](O)[C@H]1O; Nva = CCC[C@H](N)C(=O)O; Sar = CNCC(=O)O

Key:
human PAC1 = target: T1, human PAC1 (Homo sapiens, UniProt P41586); assay: cAMP accumulation assay in PAC1-CHO cells; type: cell-based; settings: for EC50: cAMP stimulation, CHO cells stably expressing human PAC1, 500 μM IBMX, 10 min agonist at 37 °C, 3H-cAMP/PKA competition read-out, Table 3, control has two values (two experiments)
T1 construct: 3xHA (N)
T1 sequence (P41586 21-468): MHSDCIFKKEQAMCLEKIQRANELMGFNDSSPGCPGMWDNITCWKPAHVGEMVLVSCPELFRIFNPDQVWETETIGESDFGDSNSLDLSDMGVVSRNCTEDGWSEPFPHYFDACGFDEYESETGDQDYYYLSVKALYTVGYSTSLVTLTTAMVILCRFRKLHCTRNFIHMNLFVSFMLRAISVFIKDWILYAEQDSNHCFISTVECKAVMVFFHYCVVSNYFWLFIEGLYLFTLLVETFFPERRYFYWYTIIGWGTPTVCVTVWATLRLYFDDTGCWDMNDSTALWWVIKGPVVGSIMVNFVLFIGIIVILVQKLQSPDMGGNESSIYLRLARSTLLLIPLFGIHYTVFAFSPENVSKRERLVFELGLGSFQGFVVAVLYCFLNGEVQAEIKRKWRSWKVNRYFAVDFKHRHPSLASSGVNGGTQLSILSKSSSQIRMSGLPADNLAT
Protocol: In Vitro cAMP Accumulation
(§1) DMEM:F12 (1:1)medium, incubated
(§2) Serial dilutions of different

human VPAC1 = target: T2, human VPAC1 (Homo sapiens, UniProt P32241); assay: cAMP accumulation assay in VPAC1-CHO cells; settings: for Emax: read-out: VPAC1 EMAX
T2 sequence (P32241 31-457): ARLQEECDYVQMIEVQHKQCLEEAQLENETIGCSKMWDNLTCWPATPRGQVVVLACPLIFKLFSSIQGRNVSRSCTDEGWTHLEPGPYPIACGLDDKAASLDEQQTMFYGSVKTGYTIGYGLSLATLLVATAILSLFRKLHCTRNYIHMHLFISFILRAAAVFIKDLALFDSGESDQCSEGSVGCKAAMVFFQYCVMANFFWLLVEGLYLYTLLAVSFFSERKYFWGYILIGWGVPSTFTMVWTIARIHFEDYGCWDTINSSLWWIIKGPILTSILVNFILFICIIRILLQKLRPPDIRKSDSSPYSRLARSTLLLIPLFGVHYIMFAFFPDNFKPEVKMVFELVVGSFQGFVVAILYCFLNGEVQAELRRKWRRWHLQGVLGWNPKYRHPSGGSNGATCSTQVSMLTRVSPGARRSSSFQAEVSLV

human VPAC2 = target: T3, human VPAC2 (Homo sapiens, UniProt P41587); assay: cAMP accumulation assay in VPAC2-CHO cells; type: cell-based
T3 construct: 3xHA (N)
T3 sequence (P41587 24-438): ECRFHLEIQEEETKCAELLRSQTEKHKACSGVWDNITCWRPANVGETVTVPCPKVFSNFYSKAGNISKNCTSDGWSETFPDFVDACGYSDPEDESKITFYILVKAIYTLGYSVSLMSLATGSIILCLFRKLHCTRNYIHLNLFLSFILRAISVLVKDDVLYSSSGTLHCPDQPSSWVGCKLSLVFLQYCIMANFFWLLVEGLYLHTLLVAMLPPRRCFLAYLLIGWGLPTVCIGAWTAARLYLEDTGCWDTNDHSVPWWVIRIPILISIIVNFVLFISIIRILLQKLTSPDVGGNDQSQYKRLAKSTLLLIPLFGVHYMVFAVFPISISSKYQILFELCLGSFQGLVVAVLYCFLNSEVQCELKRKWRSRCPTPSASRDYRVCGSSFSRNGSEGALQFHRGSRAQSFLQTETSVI
Protocol: as §1, §2

[1] = HA-VPAC2-CHO passage #28, 20,000 cells/well, dilutions from 10 uM, single experiment in duplicate, supplement page S13, read-out: VPAC2-CHO EC50(nM), supplement curve fit
[2] = cAMP stimulation, CHO cells stably expressing human VPAC2, 500 μM IBMX, 10 min agonist at 37 °C, Table 3, NC = No convergence, read-out: VPAC2 EC50

SMILES | Emax (human PAC1) | EC50 (human PAC1) | selectivity for PAC1 over VPAC1 (human PAC1; ratio of cAMP EC50 values (VPAC1/PAC1)) | selectivity for PAC1 over VPAC2 (human PAC1; ratio of cAMP EC50 values (VPAC2/PAC1)) | EC50 (human VPAC1) | Emax (human VPAC1) | Emax (human VPAC2) | EC50 (human VPAC2; [1]) | EC50 (human VPAC2; [2])
CCC[C@H](NC(=O)[C@H](CCC(N)=O)NC(=O)[C@H](CCCCN)NC(=O)[C@H](CCCNC(=N)N)NC(=O)[C@H](Cc1ccc(O)cc1)NC(=O)[C@H](CCCNC(=N)N)NC(=O)[C@H](CO)NC(=O)[C@H](Cc1ccc(O)cc1)NC(=O)[C@H](CO)NC(=O)[C@H](CC(=O)O)NC(=O)[C@@H](NC(=O)[C@H](Cc1ccccc1)NC(=O)[C@@H](NC(=O)CNC(=O)[C@H](CC(=O)O)NC(=O)[C@H](CO)NC(=O)[C@@H](N)Cc1c[nH]cn1)[C@@H](C)CC)[C@@H](C)O)C(=O)N[C@@H](C)C(=O)N[C@H](C(=O)N[C@@H](CCCCN)C(=O)N[C@@H](CCCCN)C(=O)N[C@@H](Cc1ccc(O)cc1)C(=O)N[C@@H](CC(C)C)C(=O)N[C@@H](CO[C@@H]1O[C@H](CO)[C@@H](O)[C@H](O)[C@H]1O)C(N)=O)C(C)C [Compound 2] | 181% | 0.64 nM | ~ 58 fold | ~ 886 fold | 37 nM | 104% | 110% | 577 nM | 
CCC[C@H](NC(=O)[C@H](CCC(N)=O)NC(=O)[C@H](CCCCN)NC(=O)[C@H](CCCNC(=N)N)NC(=O)[C@H](Cc1ccc(O)cc1)NC(=O)[C@H](CCCNC(=N)N)NC(=O)[C@H](CO)NC(=O)[C@H](Cc1ccc(O)cc1)NC(=O)[C@H](CO)NC(=O)[C@H](CC(=O)O)NC(=O)[C@@H](NC(=O)[C@H](Cc1ccccc1)NC(=O)[C@@H](NC(=O)CNC(=O)[C@H](CC(=O)O)NC(=O)[C@H](CO)NC(=O)[C@@H](N)Cc1c[nH]cn1)[C@@H](C)CC)[C@@H](C)O)C(=O)N[C@@H](C)C(=O)N[C@H](C(=O)N[C@@H](CCCCN)C(=O)N[C@@H](CCCCN)C(=O)N[C@@H](Cc1ccc(O)cc1)C(=O)N[C@@H](CC(C)C)C(=O)N[C@@H](CO)C(N)=O)C(C)C [Compound 1] | 198% | 2.2 nM |  |  | 5.2 nM | 42% | 111% | 576 nM | 
CCC[C@H](NC(=O)[C@H](CCC(N)=O)NC(=O)[C@H](CCCCN)NC(=O)[C@H](CCCNC(=N)N)NC(=O)[C@H](Cc1ccc(O)cc1)NC(=O)[C@H](CCCNC(=N)N)NC(=O)[C@H](CO)NC(=O)[C@H](Cc1ccc(O)cc1)NC(=O)[C@H](CO)NC(=O)[C@H](CC(=O)O)NC(=O)[C@@H](NC(=O)[C@H](Cc1ccccc1)NC(=O)[C@@H](NC(=O)CNC(=O)[C@H](CC(=O)O)NC(=O)[C@H](CO)NC(=O)[C@@H](N)Cc1c[nH]cn1)[C@@H](C)CC)[C@@H](C)O)C(=O)N[C@@H](C)C(=O)N[C@H](C(=O)N[C@@H](CCCCN)C(=O)N[C@@H](CCCCN)C(=O)N[C@@H](Cc1ccc(O)cc1)C(=O)N[C@@H](CC(C)C)C(=O)N[C@@H](CO[C@@H]1O[C@H](CO)[C@@H](O)[C@H](O)[C@H]1O)C(=O)N[C@@H](CO[C@@H]1O[C@H](CO)[C@@H](O)[C@H](O)[C@H]1O)C(N)=O)C(C)C [Compound 3] | 152% | 1.9 nM |  |  | 26 nM | 147% | 128% |  | 7370 nM
CCC[C@H](NC(=O)[C@H](CCC(N)=O)NC(=O)[C@H](CCCCN)NC(=O)[C@H](CCCNC(=N)N)NC(=O)[C@H](Cc1ccc(O)cc1)NC(=O)[C@H](CCCNC(=N)N)NC(=O)[C@H](CO)NC(=O)[C@H](Cc1ccc(O)cc1)NC(=O)[C@H](CO)NC(=O)[C@H](CC(=O)O)NC(=O)[C@@H](NC(=O)[C@H](Cc1ccccc1)NC(=O)[C@@H](NC(=O)CNC(=O)[C@H](CC(=O)O)NC(=O)[C@H](CO)NC(=O)[C@@H](N)Cc1c[nH]cn1)[C@@H](C)CC)[C@@H](C)O)C(=O)N[C@@H](C)C(=O)N[C@H](C(=O)N[C@@H](CCCCN)C(=O)N[C@@H](CCCCN)C(=O)N[C@@H](Cc1ccc(O)cc1)C(=O)N[C@@H](CC(C)C)C(=O)N[C@@H](CO[C@@H]1O[C@H](CO)[C@@H](O[C@@H]2O[C@H](CO)[C@H](O)[C@H](O)[C@H]2O)[C@H](O)[C@H]1O)C(N)=O)C(C)C [Compound 4] | 174% | 1.8 nM |  |  | 21 nM | 118% | 169% |  | 1940 nM
CCC[C@H](NC(=O)[C@H](CCC(N)=O)NC(=O)[C@H](CCCCN)NC(=O)[C@H](CCCNC(=N)N)NC(=O)[C@H](Cc1ccc(O)cc1)NC(=O)[C@H](CCCNC(=N)N)NC(=O)[C@H](CO)NC(=O)[C@H](Cc1ccc(O)cc1)NC(=O)[C@H](CO)NC(=O)[C@H](CC(=O)O)NC(=O)[C@@H](NC(=O)[C@H](Cc1ccccc1)NC(=O)[C@@H](NC(=O)CN(C)C(=O)[C@H](CC(=O)O)NC(=O)[C@H](CO)NC(=O)[C@@H](N)Cc1c[nH]cn1)[C@@H](C)CC)[C@@H](C)O)C(=O)N[C@@H](C)C(=O)N[C@H](C(=O)N[C@@H](CCCCN)C(=O)N[C@@H](CCCCN)C(=O)N[C@@H](Cc1ccc(O)cc1)C(=O)N[C@@H](CC(C)C)C(=O)N[C@@H](CO[C@@H]1O[C@H](CO)[C@@H](O[C@@H]2O[C@H](CO)[C@H](O)[C@H](O)[C@H]2O)[C@H](O)[C@H]1O)C(N)=O)C(C)C [Compound 6] (H-HSD[Sar]IFTDSYSRYRKQ[Nva]AVKKYLS(X1)-NH2) | 134% | 67 nM |  |  | 195 nM | 107% |  |  | 
CCC[C@H](NC(=O)[C@H](CCC(N)=O)NC(=O)[C@H](CCCCN)NC(=O)[C@H](CCCNC(=N)N)NC(=O)[C@H](Cc1ccc(O)cc1)NC(=O)[C@H](CCCNC(=N)N)NC(=O)[C@H](CO)NC(=O)[C@H](Cc1ccc(O)cc1)NC(=O)[C@H](CO)NC(=O)[C@H](CC(=O)O)NC(=O)[C@@H](NC(=O)[C@H](Cc1ccccc1)NC(=O)[C@@H](NC(=O)[C@H](C)NC(=O)[C@H](CC(=O)O)NC(=O)[C@H](CO)NC(=O)[C@@H](N)Cc1c[nH]cn1)[C@@H](C)CC)[C@@H](C)O)C(=O)N[C@@H](C)C(=O)N[C@H](C(=O)N[C@@H](CCCCN)C(=O)N[C@@H](CCCCN)C(=O)N[C@@H](Cc1ccc(O)cc1)C(=O)N[C@@H](CC(C)C)C(=O)N[C@@H](CO[C@@H]1O[C@H](CO)[C@@H](O[C@@H]2O[C@H](CO)[C@H](O)[C@H](O)[C@H]2O)[C@H](O)[C@H]1O)C(N)=O)C(C)C [Compound 5] | 181% | 7 nM |  |  | 38 nM | 124% | 139% |  | 321 nM
